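Grown in 96-well plates, cells were treated for 48 hours with each compound at five concentrations. Insufficient inhibition: endpoint recorded as highest concentration tested. GI50 = concentration required for 50% inhibition of growth.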 Activity calls are given as the source filed them. Cut-off read from the data, not from the text of the source: active = GI50 up to about 1.1 µM and inactive = higher.
How the values were obtained:
Assay in all cases: growth of human tumour cells (NCI), 48 h
[1] = system: 786-0
[2] = system: A498
[3] = system: A549
[4] = system: ACHN
[5] = system: BT-549
[6] = system: CCRF-CEM
[7] = system: COLO 205
[8] = system: DU-145
[9] = system: EKVX
[10] = system: HCC 2998
[11] = system: HCT-116
[12] = system: HCT-15
[13] = system: HL-60
[14] = system: HOP-62
[15] = system: HOP-92
[16] = system: HT-29
[17] = system: Hs-578T
[18] = system: IGROV-1
[19] = system: K562
[20] = system: KM12
[21] = system: LOX IMVI
[22] = system: M14
[23] = system: MCF7
[24] = system: MDA-MB-231
[25] = system: MDA-MB-435
[26] = system: MDA-N
[27] = system: MOLT-4
[28] = system: Malme-3M
[29] = system: NCI-H226
[30] = system: NCI-H23
[31] = system: NCI-H460
[32] = system: NCI-H522
[33] = system: NCI/ADR-RES
[34] = system: OVCAR-3
[35] = system: OVCAR-4
[36] = system: OVCAR-5
[37] = system: OVCAR-8
[38] = system: PC-3
[39] = system: RPMI-8226
[40] = system: RXF 393
[41] = system: SF-268
[42] = system: SF-295
[43] = system: SF-539
[44] = system: SK-MEL-28
[45] = system: SK-MEL-2
[46] = system: SK-MEL-5
[47] = system: SK-OV-3
[48] = system: SN12C
[49] = system: SNB-19
[50] = system: SNB-75
[51] = system: SR
[52] = system: SW-620
[53] = system: T47D
[54] = system: TK-10
[55] = system: U-251
[56] = system: UACC-257
[57] = system: UACC-62
[58] = system: UO-31
[59] = system: CAKI-1

## COC(=O)C1(Cc2ccccc2)Cc2cc3c(cc2C1=O)CCC3 (centres undefined)
[1]
  GI50: 39.4 µM (inactive)
[2]
  GI50: 28.2 µM (inactive)
[3]
  GI50: 16.6 µM (inactive)
[4]
  GI50: 49.8 µM (inactive)
[5]
  GI50: 43.7 µM (inactive)
[6]
  GI50: 22.6 µM (inactive)
[7]
  GI50: 19.5 µM (inactive)
[8]
  GI50: 48.1 µM (inactive)
[9]
  GI50: 25.3 µM (inactive)
[10]
  GI50: 2.81 µM (inactive)
[11]
  GI50: 23.8 µM (inactive)
[12]
  GI50: 31.6 µM
[13]
  GI50: 14.6 µM (inactive)
[14]
  GI50: 80.5 µM (inactive)
[15]
  GI50: 11.6 µM (inactive)
[16]
  GI50: 12 µM (inactive)
[17]
  GI50: 49.7 µM (inactive)
[18]
  GI50: 36 µM (inactive)
[19]
  GI50: 31.4 µM (inactive)
[20]
  GI50: 19.8 µM (inactive)
[21]
  GI50: 27 µM (inactive)
[22]
  GI50: 20 µM (inactive)
[23]
  GI50: 13.9 µM (inactive)
[24]
  GI50: 43.6 µM (inactive)
[25]
  GI50: 15.1 µM (inactive)
[26]
  GI50: 15 µM (inactive)
[27]
  GI50: 17.1 µM (inactive)
[28]
  GI50: 22.5 µM (inactive)
[29]
  GI50: 27.4 µM (inactive)
[30]
  GI50: 56.2 µM (inactive)
[31]
  GI50: 4.44 µM (inactive)
[32]
  GI50: 21.2 µM (inactive)
[33]
  GI50: 30.5 µM (inactive)
[34]
  GI50: 40 µM (inactive)
[35]
  GI50: 33.7 µM (inactive)
[36]
  GI50: 58.9 µM (inactive)
[37]
  GI50: 31.2 µM (inactive)
[38]
  GI50: 26.1 µM (inactive)
[39]
  GI50: 23.1 µM (inactive)
[40]
  GI50: 36.8 µM (inactive)
[41]
  GI50: 22.2 µM (inactive)
[42]
  GI50: 38.2 µM (inactive)
[43]
  GI50: 43.2 µM (inactive)
[44]
  GI50: 46.2 µM (inactive)
[45]
  GI50: 18.3 µM (inactive)
[46]
  GI50: 16.6 µM (inactive)
[47]
  GI50: 41.1 µM (inactive)
[48]
  GI50: 37.3 µM (inactive)
[49]
  GI50: 47.1 µM (inactive)
[50]
  GI50: 27.7 µM (inactive)
[51]
  GI50: 21.9 µM (inactive)
[52]
  GI50: 29.6 µM (inactive)
[53]
  GI50: 13.4 µM (inactive)
[54]
  GI50: 64 µM (inactive)
[55]
  GI50: 33.6 µM (inactive)
[56]
  GI50: 36.9 µM (inactive)
[57]
  GI50: 33.4 µM (inactive)
[58]
  GI50: 34.5 µM (inactive)

## O=C(O)/C=C/c1ccc(OS(=O)(=O)O)cc1
[1]
  GI50: > 100 µM (inactive)
[2]
  GI50: > 100 µM (inactive)
[3]
  GI50: > 100 µM (inactive)
[4]
  GI50: > 100 µM (inactive)
[5]
  GI50: > 100 µM (inactive)
[59]
  GI50: > 100 µM (inactive)
[7]
  GI50: > 100 µM (inactive)
[8]
  GI50: > 100 µM (inactive)
[9]
  GI50: > 100 µM (inactive)
[10]
  GI50: > 100 µM (inactive)
[11]
  GI50: > 100 µM (inactive)
[12]
  GI50: > 100 µM
[13]
  GI50: > 100 µM (inactive)
[14]
  GI50: > 100 µM (inactive)
[15]
  GI50: > 100 µM (inactive)
[16]
  GI50: > 100 µM (inactive)
[17]
  GI50: > 100 µM (inactive)
[18]
  GI50: > 100 µM (inactive)
[19]
  GI50: > 100 µM (inactive)
[20]
  GI50: > 100 µM (inactive)
[21]
  GI50: > 100 µM (inactive)
[22]
  GI50: > 100 µM (inactive)
[23]
  GI50: > 100 µM (inactive)
[24]
  GI50: > 100 µM (inactive)
[25]
  GI50: > 100 µM (inactive)
[26]
  GI50: > 100 µM (inactive)
[27]
  GI50: > 100 µM (inactive)
[28]
  GI50: > 100 µM (inactive)
[29]
  GI50: > 100 µM (inactive)
[30]
  GI50: > 100 µM (inactive)
[31]
  GI50: > 100 µM (inactive)
[32]
  GI50: > 100 µM (inactive)
[33]
  GI50: > 100 µM (inactive)
[34]
  GI50: > 100 µM (inactive)
[35]
  GI50: > 100 µM (inactive)
[36]
  GI50: > 100 µM (inactive)
[37]
  GI50: > 100 µM (inactive)
[38]
  GI50: > 100 µM (inactive)
[39]
  GI50: > 100 µM (inactive)
[40]
  GI50: 1.49 µM (inactive)
[41]
  GI50: > 100 µM (inactive)
[42]
  GI50: > 100 µM (inactive)
[43]
  GI50: > 100 µM (inactive)
[44]
  GI50: > 100 µM (inactive)
[45]
  GI50: > 100 µM (inactive)
[46]
  GI50: > 100 µM (inactive)
[47]
  GI50: > 100 µM (inactive)
[48]
  GI50: > 100 µM (inactive)
[49]
  GI50: > 100 µM (inactive)
[50]
  GI50: > 100 µM (inactive)
[51]
  GI50: > 100 µM (inactive)
[52]
  GI50: > 100 µM (inactive)
[53]
  GI50: > 100 µM (inactive)
[54]
  GI50: > 100 µM (inactive)
[55]
  GI50: > 100 µM (inactive)
[56]
  GI50: > 100 µM (inactive)
[57]
  GI50: > 100 µM (inactive)
[58]
  GI50: > 100 µM (inactive)

## N/C(=N/c1ccc(O)cc1)S(=O)O
[1]
  GI50: > 100 µM (inactive)
[2]
  GI50: > 100 µM (inactive)
[3]
  GI50: > 100 µM (inactive)
[4]
  GI50: > 100 µM (inactive)
[5]
  GI50: > 100 µM (inactive)
[59]
  GI50: > 100 µM (inactive)
[6]
  GI50: 89.9 µM (inactive)
[7]
  GI50: > 100 µM (inactive)
[8]
  GI50: > 100 µM (inactive)
[9]
  GI50: > 100 µM (inactive)
[10]
  GI50: > 100 µM (inactive)
[11]
  GI50: > 100 µM (inactive)
[12]
  GI50: > 100 µM
[13]
  GI50: > 100 µM (inactive)
[14]
  GI50: > 100 µM (inactive)
[15]
  GI50: > 100 µM (inactive)
[16]
  GI50: > 100 µM (inactive)
[17]
  GI50: > 100 µM (inactive)
[18]
  GI50: > 100 µM (inactive)
[19]
  GI50: > 100 µM (inactive)
[20]
  GI50: > 100 µM (inactive)
[21]
  GI50: > 100 µM (inactive)
[22]
  GI50: > 100 µM (inactive)
[23]
  GI50: > 100 µM (inactive)
[24]
  GI50: > 100 µM (inactive)
[25]
  GI50: > 100 µM (inactive)
[26]
  GI50: > 100 µM (inactive)
[27]
  GI50: > 100 µM (inactive)
[28]
  GI50: > 100 µM (inactive)
[29]
  GI50: 37.2 µM (inactive)
[30]
  GI50: > 100 µM (inactive)
[32]
  GI50: > 100 µM (inactive)
[33]
  GI50: > 100 µM (inactive)
[34]
  GI50: > 100 µM (inactive)
[35]
  GI50: > 100 µM (inactive)
[36]
  GI50: > 100 µM (inactive)
[37]
  GI50: > 100 µM (inactive)
[38]
  GI50: > 100 µM (inactive)
[39]
  GI50: > 100 µM (inactive)
[40]
  GI50: > 100 µM (inactive)
[41]
  GI50: > 100 µM (inactive)
[42]
  GI50: > 100 µM (inactive)
[43]
  GI50: > 100 µM (inactive)
[44]
  GI50: > 100 µM (inactive)
[45]
  GI50: > 100 µM (inactive)
[46]
  GI50: > 100 µM (inactive)
[47]
  GI50: 41.5 µM (inactive)
[48]
  GI50: > 100 µM (inactive)
[49]
  GI50: > 100 µM (inactive)
[50]
  GI50: > 100 µM (inactive)
[51]
  GI50: > 100 µM (inactive)
[52]
  GI50: > 100 µM (inactive)
[53]
  GI50: > 100 µM (inactive)
[54]
  GI50: > 100 µM (inactive)
[55]
  GI50: > 100 µM (inactive)
[56]
  GI50: > 100 µM (inactive)
[57]
  GI50: > 100 µM (inactive)
[58]
  GI50: > 100 µM (inactive)

Source: ChEMBL document CHEMBL1201862, “PubChem BioAssay data set” (2004)
